These results are taken from ChEMBL document CHEMBL1122468, “Synthesis of (7R)-7H-indolo[3,4-gh][1,4]benzoxazines, a new class of D-heteroergolines with dopamine agonist activity” (J Med Chem, 1983).

Experiment [1] concerns Rattus norvegicus. Description: In vivo measure of dopaminergic activity by the induction of contralateral turning behavior in 6-hydroxydopamine (6-OHDA) lesioned rats, ip. Format: functional.
Experiment [2] addresses Dopamine receptor. Description: In vitro affinity for dopamine receptor by displacement of [3H]- apomorphine in rat striatal membranes. It counts as cell membranes, Membrane.
In experiment [3] the target is T1, Cerebral cortex alpha adrenergic receptor (Bos taurus, UniProt Q28838+P18130).
T1 sequence (Q28838 whole entry): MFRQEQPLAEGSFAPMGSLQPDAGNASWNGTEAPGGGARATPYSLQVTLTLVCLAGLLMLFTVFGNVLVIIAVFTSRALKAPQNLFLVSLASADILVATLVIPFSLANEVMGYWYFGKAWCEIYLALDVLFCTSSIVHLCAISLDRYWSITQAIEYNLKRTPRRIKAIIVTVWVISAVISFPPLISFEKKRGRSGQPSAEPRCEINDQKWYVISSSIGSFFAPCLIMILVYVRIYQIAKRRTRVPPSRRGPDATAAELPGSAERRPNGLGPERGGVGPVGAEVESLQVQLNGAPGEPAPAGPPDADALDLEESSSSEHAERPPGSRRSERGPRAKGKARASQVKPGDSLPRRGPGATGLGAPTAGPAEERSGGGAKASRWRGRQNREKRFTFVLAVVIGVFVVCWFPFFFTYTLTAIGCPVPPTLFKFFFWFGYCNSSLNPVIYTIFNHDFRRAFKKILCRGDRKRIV
T1 sequence (P18130 whole entry): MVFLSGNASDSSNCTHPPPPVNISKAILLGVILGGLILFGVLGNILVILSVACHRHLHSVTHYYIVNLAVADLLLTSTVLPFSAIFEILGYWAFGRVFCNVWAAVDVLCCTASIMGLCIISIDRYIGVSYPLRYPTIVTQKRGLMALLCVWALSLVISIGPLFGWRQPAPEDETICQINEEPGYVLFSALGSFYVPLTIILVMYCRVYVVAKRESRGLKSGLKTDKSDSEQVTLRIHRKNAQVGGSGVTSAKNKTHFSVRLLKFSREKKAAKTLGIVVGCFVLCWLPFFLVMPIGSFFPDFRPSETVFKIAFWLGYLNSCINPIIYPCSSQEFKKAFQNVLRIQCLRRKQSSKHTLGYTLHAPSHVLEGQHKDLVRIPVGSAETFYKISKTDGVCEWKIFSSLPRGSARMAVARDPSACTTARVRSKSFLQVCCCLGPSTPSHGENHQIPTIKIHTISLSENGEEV
Put plainly: In vitro affinity for alpha adrenergic receptor by displacement of 3[H]clonidine in calf cerebral cortex. It counts as tissue-based.

Where [4] appears, read: Rattus norvegicus, ip, read-out: ED50.

As usually defined, the ED50 is the dose at which the effect has come halfway, by size or by number of responders. As usually defined, the IC50 is the midpoint of a concentration-inhibition curve. Read a high IC50 as weaker potency in that assay. Turning to `CCCCN1CCO[C@@H]2c3cccc4[nH]cc(c34)C[C@H]21`, the ED50 in experiment [1] (setting [4]) stood at 1.1 mg/kg. The IC50 turned out to be 33 nM in experiment [2] and 46 nM in experiment [3].
Regarding `CCCN1CCO[C@@H]2c3cccc4[nH]cc(c34)C[C@H]21`, the 50% effective dose (ED50) in experiment [1] (setting [4]) is 0.028 mg/kg. The IC50 worked out at 2.2 nM in experiment [2] and 31 nM in experiment [3].
Turning to `CCN1CCO[C@@H]2c3cccc4[nH]cc(c34)C[C@H]21` (stereo in doubt; 6b), in experiment [1], the ED50 is 0.09 mg/kg. Also, the half-maximal inhibitory concentration (IC50) in experiment [2] is 4.65 nM; in experiment [3], 15 nM.
Take `c1cc2c3c(c[nH]c3c1)C[C@H]1NCCO[C@H]21`: the median effective dose (ED50) in experiment [1] (setting [4]) stood at 0.76 mg/kg. For the same compound, the results for the IC50 in experiment [2] and in experiment [3] were 59.6 nM and 55 nM, respectively.
In experiment [1], `CCN1CCO[C@@H]2c3cccc4[nH]cc(c34)C[C@H]21` (stereo in doubt; (-)6b) registered a 50% effective dose (ED50) of 0.027 mg/kg. Moreover, the concentration for half-maximal inhibition (IC50) in experiment [2] is listed as 2 nM; in experiment [3] it was 7 nM.
With `CCCN1C[C@H](CSC)C[C@@H]2c3cccc4[nH]cc(c34)C[C@H]21` [PERGOLIDE], the 50% effective dose (ED50) in experiment [1] (setting [4]) was found to be 0.1 mg/kg.
Same read-out and setting: to `CC(C)C[C@H]1C(=O)N2CCC[C@H]2[C@]2(O)O[C@](NC(=O)[C@@H]3C=C4c5cccc6[nH]c(Br)c(c56)C[C@H]4N(C)C3)(C(C)C)C(=O)N12` [BROMOCRIPTINE] belongs 2.8 mg/kg.
The compound `CCN1CCO[C@@H]2c3cccc4[nH]cc(c34)C[C@H]21` (stereo in doubt; (+)6b) returned an ED50 in experiment [1] of 7.5 mg/kg. Moreover, the concentration for half-maximal inhibition (IC50) in experiment [2] is 219 nM; in experiment [3] it was 34 nM.
Taken in the same sequence, the figures for `CCN1CCO[C@@H]2c3cccc4[nH]cc(c34)C[C@H]21` (relative stereo) were more than 5 mg/kg, 1240 nM and 1354 nM.
Turning to `C=CCN1CCO[C@@H]2c3cccc4[nH]cc(c34)C[C@H]21`, in experiment [1] (setting [4]), the median effective dose (ED50) came to 0.15 mg/kg. For the same compound, the values for the half-maximal inhibitory concentration (IC50) in experiment [2] and in experiment [3] were 23 nM and 206 nM, respectively.
For `CN1CCO[C@@H]2c3cccc4[nH]cc(c34)C[C@H]21`, the ED50 in experiment [1] (setting [4]) came to 0.18 mg/kg. Besides, the figures for the IC50 in experiment [2] and in experiment [3] were 28.9 nM and 27 nM, respectively.
